{"source": "patent US20240424109A1", "about": "“GLUCOSE-[…] CONJUGATES COMPRISING A TETRA-VALENT SUGAR CLUSTER FOR TREATMENT OF DIABETES” (Merck Sharp & Dohme LLC, priority 2021, published 2024)", "key": {"[1]": {"target": "T1, human insulin receptor type B (IR(B)) (Homo sapiens, UniProt P06213)", "T1 construct": "expressed in transfected cells; host or cells: CHO cells (G418 selection)", "T1 sequence (P06213 28-758 limits assumed)": "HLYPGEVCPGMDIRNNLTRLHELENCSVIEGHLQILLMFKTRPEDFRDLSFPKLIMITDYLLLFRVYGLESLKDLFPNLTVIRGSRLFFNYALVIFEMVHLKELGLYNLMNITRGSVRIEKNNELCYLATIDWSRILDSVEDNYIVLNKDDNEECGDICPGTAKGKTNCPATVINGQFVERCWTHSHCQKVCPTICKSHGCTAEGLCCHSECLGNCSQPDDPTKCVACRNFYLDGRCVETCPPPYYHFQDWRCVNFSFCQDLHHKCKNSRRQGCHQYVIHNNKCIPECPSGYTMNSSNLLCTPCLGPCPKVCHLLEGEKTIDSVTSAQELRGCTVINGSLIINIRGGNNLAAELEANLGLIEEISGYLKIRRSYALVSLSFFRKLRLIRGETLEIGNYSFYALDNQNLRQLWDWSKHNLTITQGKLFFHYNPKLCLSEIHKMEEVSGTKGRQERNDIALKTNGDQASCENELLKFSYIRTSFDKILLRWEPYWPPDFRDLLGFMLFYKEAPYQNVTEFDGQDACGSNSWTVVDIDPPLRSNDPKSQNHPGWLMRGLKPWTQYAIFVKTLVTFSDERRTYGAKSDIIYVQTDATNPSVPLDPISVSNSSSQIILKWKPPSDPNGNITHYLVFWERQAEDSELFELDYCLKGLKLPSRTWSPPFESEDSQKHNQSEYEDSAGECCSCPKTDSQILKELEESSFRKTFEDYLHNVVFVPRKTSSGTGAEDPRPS", "T1 sequence (P06213 763-1382 limits assumed)": "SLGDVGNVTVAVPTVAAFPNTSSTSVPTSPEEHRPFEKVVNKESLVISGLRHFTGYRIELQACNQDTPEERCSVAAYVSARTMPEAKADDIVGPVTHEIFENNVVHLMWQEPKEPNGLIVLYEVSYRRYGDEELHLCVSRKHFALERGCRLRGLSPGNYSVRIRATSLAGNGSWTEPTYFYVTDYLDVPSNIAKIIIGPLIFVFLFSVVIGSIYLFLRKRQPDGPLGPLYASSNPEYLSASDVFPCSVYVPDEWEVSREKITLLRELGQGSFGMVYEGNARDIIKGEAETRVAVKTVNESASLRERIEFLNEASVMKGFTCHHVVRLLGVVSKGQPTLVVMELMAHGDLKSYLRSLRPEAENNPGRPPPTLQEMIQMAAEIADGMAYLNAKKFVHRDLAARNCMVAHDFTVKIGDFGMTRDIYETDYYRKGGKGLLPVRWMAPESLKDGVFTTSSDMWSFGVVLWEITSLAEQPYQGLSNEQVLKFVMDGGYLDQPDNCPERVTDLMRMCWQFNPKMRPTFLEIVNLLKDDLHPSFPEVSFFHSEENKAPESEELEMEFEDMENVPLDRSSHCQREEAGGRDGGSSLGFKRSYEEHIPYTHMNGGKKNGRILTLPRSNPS", "test": "Insulin receptor competition binding assay (125[I]-insulin; whole cell or SPA)", "description": "Method D: IR binding assay was run in a scintillation proximity assay (SPA) in 384-well format using cell membranes prepared from CHO cells overexpressing human IR(B) grown in F12 media containing 10% FBS and antibiotics (G418, Penicillin/[…]).\n(§1) The in vitro biological activities towards insulin receptor (IR) were measured by either ligand competition assays or functional phosphorylation assays, as described above, labeled as following: Method A: IR phosphorylation assay based on 96-well; Method B: IR phosphorylation assay based on 384-well with automated liquid dispense; Method C: cell-based IR binding assay; Method D: SPA IR binding assay method E; Method E: MRC1 assay was performed in a 96-well plate; Method F: MRC1 assay was performed in a 384-well plate."}, "[2]": {"target": "T2, Human macrophage mannose receptor 1 (MRC1) (Homo sapiens, UniProt P22897)", "T2 sequence (P22897 19-1456)": "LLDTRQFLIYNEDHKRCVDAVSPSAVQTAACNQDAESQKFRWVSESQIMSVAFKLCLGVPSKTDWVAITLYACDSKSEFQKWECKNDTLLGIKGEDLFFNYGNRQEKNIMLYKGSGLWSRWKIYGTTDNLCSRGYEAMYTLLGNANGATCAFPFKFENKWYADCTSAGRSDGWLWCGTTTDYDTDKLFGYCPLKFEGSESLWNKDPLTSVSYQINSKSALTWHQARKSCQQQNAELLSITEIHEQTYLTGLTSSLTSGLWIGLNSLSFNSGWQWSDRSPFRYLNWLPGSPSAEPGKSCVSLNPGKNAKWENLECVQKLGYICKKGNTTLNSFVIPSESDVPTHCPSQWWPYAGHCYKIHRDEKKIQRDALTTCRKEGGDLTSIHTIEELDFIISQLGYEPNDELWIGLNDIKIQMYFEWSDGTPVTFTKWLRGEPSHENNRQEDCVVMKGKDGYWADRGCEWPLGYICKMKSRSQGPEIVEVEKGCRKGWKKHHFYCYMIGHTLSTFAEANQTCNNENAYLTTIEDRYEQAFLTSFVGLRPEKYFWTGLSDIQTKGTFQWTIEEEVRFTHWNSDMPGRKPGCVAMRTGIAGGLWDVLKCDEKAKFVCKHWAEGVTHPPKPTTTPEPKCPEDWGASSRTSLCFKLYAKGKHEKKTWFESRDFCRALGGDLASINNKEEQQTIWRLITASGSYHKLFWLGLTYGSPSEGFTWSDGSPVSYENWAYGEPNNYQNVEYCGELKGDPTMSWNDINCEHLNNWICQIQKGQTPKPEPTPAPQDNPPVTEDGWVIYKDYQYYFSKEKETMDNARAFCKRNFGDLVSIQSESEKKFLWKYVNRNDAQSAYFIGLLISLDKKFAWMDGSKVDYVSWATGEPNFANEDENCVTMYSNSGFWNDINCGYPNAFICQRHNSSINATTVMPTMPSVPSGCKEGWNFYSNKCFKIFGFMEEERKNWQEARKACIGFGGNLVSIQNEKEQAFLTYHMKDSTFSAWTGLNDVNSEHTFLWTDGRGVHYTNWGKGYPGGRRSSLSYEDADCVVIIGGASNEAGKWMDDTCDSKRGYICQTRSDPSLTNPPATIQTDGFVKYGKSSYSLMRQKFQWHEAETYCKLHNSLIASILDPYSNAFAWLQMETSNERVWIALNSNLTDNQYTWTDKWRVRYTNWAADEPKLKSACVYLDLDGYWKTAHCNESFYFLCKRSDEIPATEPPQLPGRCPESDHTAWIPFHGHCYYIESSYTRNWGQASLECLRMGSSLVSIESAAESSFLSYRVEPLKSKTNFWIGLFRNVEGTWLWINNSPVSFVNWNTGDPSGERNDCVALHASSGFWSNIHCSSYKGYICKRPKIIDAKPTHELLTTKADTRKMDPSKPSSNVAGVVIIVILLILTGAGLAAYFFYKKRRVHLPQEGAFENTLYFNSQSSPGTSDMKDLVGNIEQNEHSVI", "test": "Human macrophage mannose receptor 1 (MRC1) competition binding assay", "settings": "competition against Eu-labeled mannosylated-BSA", "description": "The competition binding assay for MRC1 utilized a ligand, mannosylated-BSA labeled with the DELFIA Eu-N1-ITC reagent (labeling kit for europium labeling of proteins and polypetides for use in dissociation-enhanced time-resolved fluorometric assay), as reported in the literature. Assay was performed either in a 96-well plate with 100 μL well volume (Method E) or in a 384-well plate with 25 μL well volume (Method F). […] The antibody was incubated in the plate for 1 h at rt with shaking. The plate was washed with wash buffer 3-5 times followed by addition of MRC1 (2 ng/μl final concentration) in PBS containing 1% stabilizer BSA. The plate was incubated at rt with gentle shaking for 1 h. The plate was washed three times with wash buffer. […]\nas §1"}}, "data": [{"smiles": "CC[C@H](C)[C@H](NC(=O)CN)C(=O)N[C@H](C(=O)N[C@@H](CCC(=O)O)C(=O)N[C@@H](CCC(N)=O)C(=O)N[C@H]1CSSC[C@@H]2NC(=O)[C@H]([C@@H](C)CC)NC(=O)[C@H](CO)NC(=O)[C@H]([C@@H](C)O)NC(=O)[C@H](CSSC[C@H](NC(=O)[C@H](CC(C)C)NC(=O)[C@H](Cc3c[nH]cn3)NC(=O)[C@H](CCC(N)=O)NC(=O)[C@H](CC(N)=O)NC(=O)[C@@H](NC(=O)[C@H](Cc3ccccc3)NC(=O)CCCCC(=O)N(CC(=O)N(CCO[C@H]3O[C@H](CO)[C@@H](O)[C@H](O)[C@@H]3O)CCO[C@H]3O[C@H](CO)[C@@H](O)[C@H](O)[C@@H]3O)CC(=O)N(CCO[C@H]3O[C@H](CO)[C@@H](O)[C@H](O)[C@@H]3O)CCO[C@H]3O[C@H](CO)[C@@H](O)[C@H](O)[C@@H]3O)C(C)C)C(=O)NCC(=O)N[C@@H](CO)C(=O)N[C@@H](Cc3c[nH]cn3)C(=O)N[C@@H](CC(C)C)C(=O)N[C@@H](C(C)C)C(=O)N[C@@H](CCC(=O)O)C(=O)N[C@@H](C)C(=O)N[C@@H](CC(C)C)C(=O)N[C@@H](Cc3ccc(O)cc3)C(=O)N[C@@H](CC(C)C)C(=O)N[C@@H](C(C)C)C(=O)N[C@H](C(=O)NCC(=O)N[C@@H](CCC(=O)O)C(=O)N[C@@H](CCCNC(=N)N)C(=O)NCC(=O)N[C@@H](Cc3ccccc3)C(=O)N[C@@H](Cc3ccccc3)C(=O)N[C@@H](Cc3ccc(O)cc3)C(=O)N[C@H](C(=O)N3CCC[C@H]3C(=O)N[C@@H](CCCCNC(=O)CCCCC(=O)N(CC(=O)N(CCO[C@H]3O[C@H](CO)[C@@H](O)[C@H](O)[C@@H]3O)CCO[C@H]3O[C@H](CO)[C@@H](O)[C@H](O)[C@@H]3O)CC(=O)N(CCO[C@H]3O[C@H](CO)[C@@H](O)[C@H](O)[C@@H]3O)CCO[C@H]3O[C@H](CO)[C@@H](O)[C@H](O)[C@@H]3O)C(=O)N[C@H](C(=O)O)[C@@H](C)O)[C@@H](C)O)CSSC[C@@H](C(=O)N[C@@H](CC(N)=O)C(=O)O)NC(=O)[C@H](Cc3ccc(O)cc3)NC(=O)[C@H](CC(N)=O)NC(=O)[C@H](CCC(=O)O)NC(=O)[C@H](CC(C)C)NC(=O)[C@H](CCC(N)=O)NC(=O)[C@H](Cc3ccc(O)cc3)NC(=O)[C@H](CC(C)C)NC(=O)[C@H](CO)NC2=O)NC1=O)C(C)C", "note": "[IOC-31]", "values": [{"measurement": "IC50", "setting": "[1]", "value": 0.9, "unit": "nM"}]}, {"smiles": "CC[C@H](C)[C@H](NC(=O)CN)C(=O)N[C@H](C(=O)N[C@@H](CCC(=O)O)C(=O)N[C@@H](CCC(N)=O)C(=O)N[C@H]1CSSC[C@@H]2NC(=O)[C@H]([C@@H](C)CC)NC(=O)[C@H](CO)NC(=O)[C@H]([C@@H](C)O)NC(=O)[C@H](CSSC[C@H](NC(=O)[C@H](CC(C)C)NC(=O)[C@H](Cc3c[nH]cn3)NC(=O)[C@H](CCC(N)=O)NC(=O)[C@H](CC(N)=O)NC(=O)[C@@H](NC(=O)[C@H](Cc3ccccc3)NC(=O)CCCCCNC(=O)CCCCC(=O)N(CC(=O)N(CCO[C@H]3O[C@H](CO)[C@@H](O)[C@H](O)[C@@H]3O)CCO[C@H]3O[C@H](CO)[C@@H](O)[C@H](O)[C@@H]3O)CC(=O)N(CCO[C@H]3O[C@H](CO)[C@@H](O)[C@H](O)[C@@H]3O)CCO[C@H]3O[C@H](CO)[C@@H](O)[C@H](O)[C@@H]3O)C(C)C)C(=O)NCC(=O)N[C@@H](CO)C(=O)N[C@@H](Cc3c[nH]cn3)C(=O)N[C@@H](CC(C)C)C(=O)N[C@@H](C(C)C)C(=O)N[C@@H](CCC(=O)O)C(=O)N[C@@H](C)C(=O)N[C@@H](CC(C)C)C(=O)N[C@@H](Cc3ccc(O)cc3)C(=O)N[C@@H](CC(C)C)C(=O)N[C@@H](C(C)C)C(=O)N[C@H](C(=O)NCC(=O)N[C@@H](CCC(=O)O)C(=O)N[C@@H](CCCNC(=N)N)C(=O)NCC(=O)N[C@@H](Cc3ccccc3)C(=O)N[C@@H](Cc3ccccc3)C(=O)N[C@@H](Cc3ccc(O)cc3)C(=O)N[C@H](C(=O)N3CCC[C@H]3C(=O)N[C@@H](CCCCNC(=O)CCCCCNC(=O)CCCCC(=O)N(CC(=O)N(CCO[C@H]3O[C@H](CO)[C@@H](O)[C@H](O)[C@@H]3O)CCO[C@H]3O[C@H](CO)[C@@H](O)[C@H](O)[C@@H]3O)CC(=O)N(CCO[C@H]3O[C@H](CO)[C@@H](O)[C@H](O)[C@@H]3O)CCO[C@H]3O[C@H](CO)[C@@H](O)[C@H](O)[C@@H]3O)C(=O)N[C@H](C(=O)O)[C@@H](C)O)[C@@H](C)O)CSSC[C@@H](C(=O)N[C@@H](CC(N)=O)C(=O)O)NC(=O)[C@H](Cc3ccc(O)cc3)NC(=O)[C@H](CC(N)=O)NC(=O)[C@H](CCC(=O)O)NC(=O)[C@H](CC(C)C)NC(=O)[C@H](CCC(N)=O)NC(=O)[C@H](Cc3ccc(O)cc3)NC(=O)[C@H](CC(C)C)NC(=O)[C@H](CO)NC2=O)NC1=O)C(C)C", "note": "[IOC-32]", "values": [{"measurement": "IC50", "setting": "[2]", "value": 2.58, "unit": "nM"}]}]}
